Measured values as given in patent US7456291B2, “Use of a vitamin combination for the treatment of primary headaches” (priority 2000, dated 2008).
Read-outs that look alike come from different tables or passages of the source.

Legend:
[1] = tested on: common migraine (migraine without an aura); assay: Clinical cases: treatment of common migraine (migraine without an aura); assay type: in vivo, human patient; conditions: 2nd series, 3rd case; 50 mg nicotinamide alone orally twice a day
[2] = tested on: cluster headaches; assay: Clinical cases: treatment of cluster headaches; assay type: in vivo, human patient; conditions: 2nd series, 4th case; 50 mg nicotinamide alone orally twice a day
Method: 4th case—a person with cluster headaches. The patient had been suffering from nocturnal headaches for about 15 years. The headaches started about 3 hours after sleep onset and presented a left orbital pain, lachrymation, nasal congestion and an oedema of the left cheek.
They continued with the therapy for another 15 days and then the dosage was halved and treatment continued for 15 days a month.
4th case—a person with cluster headaches. The patient suffered from cluster headaches that made them wake up in the night with lacerating head pains. The pains were accompanied by lachrymation and rhinorrhea.

[3] = tested on: primary headaches (common, classical, complicated migraine, cluster headache); assay: Clinical experimentation in primary headache forms, overall statements; conditions: single agent; for effectiveness in combating the forms of headache considered: systemic administration at the typical dosage used for pellagra
[4] = tested on: complicated migraine; assay: Clinical cases: treatment of complicated migraine; assay type: in vivo, human patient; conditions: 2nd series, 2nd case; 50 mg nicotinamide alone orally twice a day
[5] = tested on: classical migraine (migraine with an aura); assay: Clinical cases: treatment of classical migraine (migraine with an aura); assay type: in vivo, human patient; conditions: 2nd series, 50 mg nicotinamide alone orally twice a day
Method: 1st case—a person with a classical migraine (or a migraine with an aura). The patient had been suffering from classical migraine symptoms for 30 years. Initially, the symptoms were located in the right temporal region and later spread to the top and to the left temple with characteristic pulsations, accompanied by photophobia, vertigo and buzzing ears. The attacks lasted for about 10 days on a monthly basis.
Later, during a migraine attack, the patient started a treatment based on 50 mg of nicotinamide+2.5 mg of riboflavin taken orally twice a day. […] During this period the patient had completely suspended the old therapy. They continued with the new treatment, according to the present invention, for another 7 days to then temporarily suspend it. Later on, the dosage was halved for 10 days a month for preventive purposes.
1st case—person one with a classical migraine (or migraine with an aura). The patient had been suffering from classical migraine symptoms for 15 years and had photophobia, flashing scotoma and vertigo. […] The symptoms were located on the right side, occurred about twice a month and lasted a week, on average. When suffering from migraines the patient could not perform any activity. The acute episodes were preceded by photophobia, buzzing ears and visual disorders (scotoma). […]

[6] = tested on: primary headaches (common, classical, complicated migraine, cluster headache); conditions: human, in vivo

| SMILES | time until the migraine was partially attenuated [1] | time until the headaches attenuated [2] [days] | effectiveness in combating the forms of headache considered [3] | secondary reactions reported for high doses ([3]; systemic administration in doses well below those for hypercholesterolemy) | time until the problem was attenuated [4] [days] | time until migraine symptoms attenuated ([5]; 1st case one) [days] | complete disappearance of migraine symptoms ([5]; 1st case) | time until the migraine returned (lesser intensity) under continued treatment ([5]; 1st case) | secondary reactions reported for high doses [6] |
| --- | --- | --- | --- | --- | --- | --- | --- | --- | --- |
| NC(=O)c1cccnc1 [nicotinamide] | about 5 days | 5 to 6 | not very effective | does not lead to the secondary reactions | 6 | 5 | did not disappear completely | about 10 days | – |
| O=C(O)c1cccnc1 [nicotinic acid, 3-pyridincarboxylic acid] | – | – | not very effective | – | – | – | – | – | does not lead to the secondary reactions |
